Data set [1] deals with PDX (TM00192/LG0567F, lung adenocarcinoma). As to the kind of experiment: Lung cancer PDX tumor xenografts in nude mice. It counts as in vivo. As to the method: To establish cell xenograft model, nude mice were injected subcutaneously with A549 cells (2×10^6) or PC-9/GR cells (4×10^6). For PDX model, the PDX sample was from The Jackson Laboratory. The model ID is TM00192/LG0567F. For this patient, the primary site is lung, the initial and diagnosis and final diagnosis is lung adenocarcinoma. The stage/grade is AJCC IB/grade 3. […] The sample type is surgical resection. […] The tumor sample were cut into approximately 1 mm^3, and the tissue was pushed under skin of mice by TROCHAR. When tumor volumes reached approximately 100 mm^3, mice were randomly distributed into groups of 7 mice. […] Tumor size was measured every two days by vernier caliper. The average tumor volume in each group was calculated based on the equation for a prolate spheroid (tumor volume = (short-diameter)^2 × large-diameter × π / 6 ) and expressed in mm^3.

For data set [2], the system named is pY705-STAT3 and pY1068-EGFR. Description: Western blot of pY705-STAT3 and pY1068-EGFR in PC-9/GR cells. It counts as cell-based, human. Particulars: W2014-S 1 μM and/or gefitinib 2 μM, 24 h. Background: In western blotting, separated proteins are transferred to a membrane and probed.
Experimental: Cells or tumor tissue were lysed with RIPA buffer (Beyotime, Shanghai, China) supplemented with protease inhibitors (Beyotime, Shanghai, China) and phosphatase inhibitors (Bimake, USA). Lysates were denatured by heating for 5 min at 99 °C and loaded on 4-10% SDS-polyacrylamide gel electrophoresis. Then the proteins were transferred to polyvinylidene fluoride (PVDF) membranes (Millipore, USA). The membranes were blocked and probed with primary antibodies and secondary HPR-conjugated antibodies. At last the membranes were detected by chemiluminescence (Tanon, Shanghai, China). […] Cells were lysed with IP RIPA buffer (Beyotime, Shanghai, China) supplemented with protease inhibitors (Beyotime, Shanghai, China) and phosphatase inhibitors (Bimake, America), and lysates were cultured with Anti-flag Affinity Gel (B23102, Bimake, USA) overnight at 4 ℃. The gel was washed by PBST for three times and added 1×loading buffer and denatured by heating for 5 min at 99 ℃. Then the proteins were resolved on SDS-PAGE, transferred to PVDF membranes and analysed with immunoblotting.
The next data set has as its system pY705-STAT3. As to the kind of experiment: Immunofluorescence of nuclear pY705-STAT3 in A549 cells. The format is cell-based, human. As to conditions: A549, 3 h treatment. Here is the method:
A549 cells were cultured into confocal dishes (Costar, USA). After 24 h, W2014-S was added into dishes. After another 3 h, cells were fixed with 4% paraformaldehyde in PBS for 10 min at room temperature. Then cells were permeabilized with 0.3% Trition X-100 for 5 min at room temperature, following by incubating with primary antibody overnight at 4 ℃. Next, cells were incubated with Alexa-Fluor-conjugated secondary antibodies for 1 h in the dark. The cells were subsequently stained with DAPI (40728ES50, Yeasen, Shanghai, China). Images were captured by Laser Scanning Confocal Microscope FV3000 (Olympus, Japan). Z-stacks were collected with a spacing of 1 μm. Antibody and dilutions used in the studies were: pY705-STAT3 (9145S, Cell Signaling Technology, 1:100), Alexa Fluor 488 Conjugate (1:5000, #4412, Cell signaling Technology, USA). The fluorescence intensity profile along the Z-axis from confocal Z-stacks was shown. The fluorescence intensity of nuclear-localized p-STAT3 was quantified using the confocal software to define the area of the selected region of interest based on the nuclear DAPI signal. Each experiment was done in at least 3 independent experiments.

The test system of another data set is STAT1 and STAT5. As to the kind of experiment: Western blot of STAT1 and STAT5 activation in A549 and PC-9 cells. It counts as cell-based, human. Here is the method:
(§1) Cells or tumor tissue were lysed with RIPA buffer (Beyotime, Shanghai, China) supplemented with protease inhibitors (Beyotime, Shanghai, China) and phosphatase inhibitors (Bimake, USA). Lysates were denatured by heating for 5 min at 99 °C and loaded on 4-10% SDS-polyacrylamide gel electrophoresis. Then the proteins were transferred to polyvinylidene fluoride (PVDF) membranes (Millipore, USA). The membranes were blocked and probed with primary antibodies and secondary HPR-conjugated antibodies. At last the membranes were detected by chemiluminescence (Tanon, Shanghai, China). For co-immunoprecipitation experiments, 293T cells were plated and grew to about 80% confluency, then co-transfected with plasmids of HA-STAT3 and Flag-STAT3 using Lipofectamine 2000. After 24 h, cells were treated with different concentrations of W2014-S for following 24 h, and stimulated with IL-6 (100 ng/mL) for 1 h. Cells were lysed with IP RIPA buffer (Beyotime, Shanghai, China) supplemented with protease inhibitors (Beyotime, Shanghai, China) and phosphatase inhibitors (Bimake, America), and lysates were cultured with Anti-flag Affinity Gel (B23102, Bimake, USA) overnight at 4 ℃. The gel was washed by PBST for three times and added 1×loading buffer and denatured by heating for 5 min at 99 ℃. Then the proteins were resolved on SDS-PAGE, transferred to PVDF membranes and analysed with immunoblotting.

The subject of data set [3] is A549 cells. As to the kind of experiment: Transwell cell invasion assay, A549. As to conditions: A549, 1 μM.
Experimental: Transwell invasion assays were performed as previously reported [37] using Transwell chamber (Costar, USA). […] Data from triplicates experiments were pooled and plotted as shown.
In the next data set the test system is PC-9/GR cells. Description: Cell apoptosis assay (Annexin V-FITC/PI flow cytometry), PC-9/GR. The format is cell-based, human. As to conditions: 72 h. As to the method:
Briefly, aliquots of 2 × 10^5 cells were seeded into 6-well plates and incubated for 24 h at 37 °C. […] After trypsinization and gently washing cells once with medium, the cells were washed twice with cold PBS. The precipitation was resuspended by 400 μL of 1 × binding buffer, and then resuspended cells were transferred into new 1.5 mL EP tubes. Then 3 μL of Annexin V-FITC and 5 μL of propidium iodide were added to the resuspended cells with further incubation at room temperature for 15 min in the dark. The analysis was done on Guava easyCyte (USA) and FlowJo 7.6 software.
(In general: A flow cytometer gives signals particle by particle.)

The subject of another data set is JAK2. As to the kind of experiment: Western blot of phosphorylated and total JAK2 in A549 and PC-9 cells. As to conditions: A549 and PC-9, 0-3 μM, 24 h. The format is cell-based, human. As to the method: as §1
The subject of the next data set is AKT. Description: Western blot of phosphorylated and total AKT in A549 and PC-9 cells. It counts as cell-based, human. Particulars: A549 and PC-9, 0-3 μM, 24 h. Here is the method: as §1
The subject of data set [4] is A549 cells. Description: Colony formation assay, A549. It counts as cell-based, human. Particulars: A549, as low as 0.3 μM.
[5] abbreviates: gefitinib 2 μM and/or W2014-S 1 μM.

Molecules are shown by their SMILES.

Turning to `C[C@H](Oc1ccc(-c2nc3nc(C4=CCN(C(=O)OC(C)(C)C)CC4)ccc3[nH]2)cc1)c1ccccc1` [W2014-S], the “level of pY705-STAT3 in tumor (western blot)” value in [1] (PDX) is reported as “significantly suppressed the level of pY705-STAT3”. For the same compound, the “body weights and signs of toxicity during treatment” value in data set [1] (PDX mice, 5 or 15 mg/kg daily, 21 d) was “no significant changes in body weights, or obvious signs of toxicity”. Moreover, the growth of xenografts entry in [1] (PDX, i.p. 5 or 15 mg/kg daily, 21 d) was “significantly inhibited growth”. Moreover, the “expression of Ki-67 in tumor (IHC)” value in [1] (PDX, vs vehicle) was “significantly reduced”. In addition, the “level of pY705-STAT3 and pY1068-EGFR” value in data set [2] is “reduced the phosphorylation of STAT3”. Moreover, in the data set on pY705-STAT3, the “accumulation of pY705-STAT3 in the nucleus” value is recorded as “decreased”. The “STAT1 and STAT5 activation” value with STAT1 and STAT5 was “no obvious effect”. Further, the cell invasion entry with A549 cells [3] was “suppressed”. Moreover, the “effect on gefitinib-induced apoptosis” value in the data set on PC-9/GR cells (W2014-S 1 μM + gefitinib 2 μM) is “significantly enhanced gefitinib-induced apoptosis”. In the data set with PC-9/GR cells (setting [5]), this compound showed a Q1 of 0.164%, a Q2 of 4.50%, a Q3 of 3.47% and a Q4 of 91.9%. Besides, the “protein level of phosphorylated JAK2 and total JAK2” value in the data set with JAK2 was “little or no effect”. Further, the “phosphorylation of AKT and total AKT” value in the data set on AKT is recorded as “not affected”. The colony formation entry with A549 cells [4] was “significantly suppressed the colony formation”.

The record behind these values is article PMC7738869, “A novel STAT3 inhibitor W2014-S regresses human non-small cell lung cancer xenografts and sensitizes EGFR-TKI acquired resistance” (Theranostics, 2021).
